Test results as given in publication PMC7127491 (Bioorganic & Medicinal Chemistry, 2008).
pEC50, pIC50: −log10 of the molar value. “Also recorded” adds a separate entry of the source.

Experiments:
Type in all cases: cell-based
[1] = tested on: normal diploid human fibroblasts (WI 38); assay: Antiproliferation MTT assay
HIV-1 = assay: Anti-HIV-1 activity, virus-induced cytopathicity in CEM cells
HIV-2 = assay: Anti-HIV-2 activity, virus-induced cytopathicity in CEM cells
influenza A (H3N2) = assay: microbe, parasite or virus in culture; details: H3N2, MDCK, read-out: EC50 against influenza A (H3N2)
[2] = tested on: all evaluated tumour cell lines (L1210, Molt4/C8, CEM, HeLa, MCF-7, MiaPaCa-2, SW 620, Hep G2); assay: Cytostatic activity over the whole panel of evaluated cell lines; details: read-out: IC50 range on all the evaluated tumour cell lines

Row | SMILES | cytotoxicity to human normal fibroblasts (WI 38), in words [1] | inhibitory activity against HIV-1, in words (HIV-1) | inhibitory activity against HIV-2, in words (HIV-2) | pEC50 (influenza A (H3N2)) | pIC50 [2]
1 | CCCCCc1ccc(C#Cc2cn(C/C=C\CN3C(=O)c4ccccc4C3=O)c(=O)[nH]c2=O)cc1 [Compound 7, (Z)-1-[4′-(N-Phthalimido)-2′-butenyl]-5-(p-pentylphenylethynyl)uracil] | no cytotoxicity |  |  |  | 
2 | O=C1c2ccccc2C(=O)N1C/C=C\Cn1cc(C#Cc2ccc(Br)cc2)c(=O)[nH]c1=O [Compound 4, (Z)-1-[4′-(N-Phthalimido)-2′-butenyl]-5-(p-bromophenylethynyl)uracil] |  | marginal inhibitory activity; also recorded: slight activity | marginal inhibitory activity |  | 
3 | CCCCCCCCC#Cc1cn(C/C=C\CN2C(=O)c3ccccc3C2=O)c(=O)[nH]c1=O [Compound 2, (Z)-1-[4′-(N-Phthalimido)-2′-butenyl]-5-decynyluracil] |  |  |  | 5.40 to 5.60 | 
4 | O=C1c2ccccc2C(=O)N1C/C=C\Cn1cc(C#CCCc2ccccc2)c(=O)[nH]c1=O [Compound 3, (Z)-1-[4′-(N-Phthalimido)-2′-butenyl]-5-(4″-phenylbutynyl)uracil] |  | marginal inhibitory activity; also recorded: slight activity | marginal inhibitory activity |  | 
5 | CCCCCc1ccc(C#Cc2cn(C/C=C/CN3C(=O)c4ccccc4C3=O)c(=O)[nH]c2=O)cc1 [Compound 14, (E)-1-[4′-(N-Phthalimido)-2′-butenyl]-5-(p-pentylphenylethynyl)uracil] | cytotoxic | marginal inhibitory activity; also recorded: moderate activity | marginal inhibitory activity; also recorded: moderate activity |  | 4.41 to 5.37
